The values that follow come from patent publication US11046651B2, “Piperazine substituted azapine derivatives and uses thereof” (Alairion, Inc., priority 2019, dated 2021).

Assay [1] addresses 5-HT2C (Homo sapiens (Human), UniProt P28335). Briefly: 5-HT2C binding assay ([3H]-Mesulergine, HEK293 membranes). As to conditions: Table L, class symbols. The protocol: 5-HT2C Binding Assay Protocol
The testing compounds were diluted with DMSO, starting at 2 mM, with 8-points and 5-fold serial dilutions.
1 μL of a compound of the present disclosure the reference compound (Table J) was transferred to an assay plate. […] 1 μL of DMSO was transferred to an assay plate according to the plate map for total binding (High control: HC).
Unifilter-96 GF/C filter plates were soaked with 50 μL of 0.3% PEI per well for about 0.5 hours at room temperature. When the binding assays were complete, the reaction mixture was filtered through the GF/C filter plates using Perkin Elmer Filtermate Harvester, and each plate was washed 4 times with cold wash buffer. The filter plates were dried for 1 hour at 50° C. After drying, the bottom of the filter plate wells were sealed using Perkin Elmer Unifilter-96 backing seal tape. 50 μL of Perkin Elmer Microscint 20 cocktail was added. The top of the filter plates were sealed with Perkin Elmer TopSeal-A sealing film.
(§1) ^3H trapped on filters were counted using Perkin Elmer MicroBeta2 Reader. Inhibition constants were calculated using the following equation:
[formula] The data was analyzed using Prism 5. The model used was “log(inhibitor) vs. response—Variable slope” to fit the data and calculate IC50. The IC50 was then converted to Ki using the following equation: Ki=IC50/(1+L/Kd), wherein L is the radioligand concentration in the reaction system; Kd is the affinity of radioligand to the receptor.

Assay [2] has as its target 5-HT2A (Homo sapiens (Human), UniProt P28223). Put plainly: 5-HT2A binding assay ([3H]-Ketanserin, HEK293 stable cell line membranes). The note with it: Table F, class symbols. The protocol: H1 and 5-HT2A Binding Assay Protocol
(§2) The testing compounds were diluted with DMSO, starting at 2 mM, with 8-points and 5-fold serial dilutions. Ketanserin and Pyrilamine were diluted with DMSO, starting at 0.2 mM, with 8-points and 5-fold serial dilution.
(§3) 1 μl of a compounds of the present disclosure and either reference compound (Table C) were transferred to assay plates. 1 μl of 0.2 mM Ketanserin or Pyrilamine was transferred to an assay plate according to the plate map for nonspecific binding (Low control: LC). 1 μl of DMSO was transferred to an assay plate according to plate map for total binding (High control: HC).
(§4) 100 μlof membrane stocks were dispensed into the plates, following the plate map. 100 of radio ligand was added. The plates were sealed and shaken at 300 rpm at room temperature for 1 hour. The Unifilter-96 GF/C filter plates were soaked with 50 of 0.3% PEI per well for at least 0.5 hour at room temperature.
(§5) When the binding assays were complete, the reaction mixture was filtered through GF/C plates using Perkin Elmer Filtermate Harvester, and then each plate was washed 4 times with cold wash buffer. The filter plates were dried for 1 hour at 50 degrees. After drying, the bottom of the filter plate wells were sealed using Perkin Elmer Unifilter-96 backing seal tape. 50 μl of Perkin Elmer Microscint 20 cocktail was added. The top of the filter plates were sealed with Perkin Elmer TopSeal-A sealing film.
as §1
(§6) [formula] The data was analyzed using Prism 5. The model used was “log(inhibitor) vs. response—Variable slope” to fit the data and calculate IC50. The IC50 was then converted to Ki using following equation: Ki=IC50/(1+L/Kd). L is the radioligand concentration in the reaction system; Kd is the affinity of radioligand to the receptor.

For assay [3], the target named is H1 (Homo sapiens (Human), UniProt P35367). Put plainly: H1 binding assay ([3H]pyrilamine, HEK293 stable cell line membranes). The note with it: Table E, class symbols. As to the method: Example 25. H1 and 5-HT2A Binding Assay Protocol
Sequence of H1 (P35367 whole entry): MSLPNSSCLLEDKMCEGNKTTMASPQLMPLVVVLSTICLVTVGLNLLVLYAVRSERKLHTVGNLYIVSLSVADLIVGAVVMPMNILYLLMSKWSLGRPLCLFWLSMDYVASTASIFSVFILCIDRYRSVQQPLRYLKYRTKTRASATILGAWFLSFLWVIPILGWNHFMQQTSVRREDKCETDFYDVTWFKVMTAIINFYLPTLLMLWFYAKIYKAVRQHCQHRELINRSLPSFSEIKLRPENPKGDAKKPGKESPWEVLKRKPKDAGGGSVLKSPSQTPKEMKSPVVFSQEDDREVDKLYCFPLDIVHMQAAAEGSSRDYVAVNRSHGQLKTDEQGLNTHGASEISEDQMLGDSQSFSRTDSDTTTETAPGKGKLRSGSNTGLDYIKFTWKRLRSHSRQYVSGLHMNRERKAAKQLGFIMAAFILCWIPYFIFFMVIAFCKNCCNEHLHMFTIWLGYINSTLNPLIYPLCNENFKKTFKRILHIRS
as §2, §3, §4, §5, §1, §6

The test system of assay [4] is male Wistar rats. Briefly: SCORE EEG/EMG sleep-wake monitoring: sleep continuity, number of arousals, depth of sleep. Type of assay: in vivo, rat. As to conditions: 30 mg/kg PO. As to the method:
Example 30. Experimental Details and Methods for Determining Sleep Continuity, Number of Arousals, and Depth of Sleep
Treatment detail plots (see, e.g., FIGS. 1-10) depict pre- and post-treatment time series plot ±30 hours before and after treatment at CT-18 (6-hours after lights-off) or pre- and post-treatment time series plots 29 hr before and 31 hr after treatments at CT-5 (5-hours after lights-on). Treatment occurred at the beginning of the hour marked by a triangle on the abscissa of the plot. Variables were computed in hourly bins.
All data were plotted as group mean±SEM (see, e.g., FIGS. 1-10). The gray shaded area encompasses the vehicle treatment mean±SEM. Along the x-axis, time of treatment is marked by a triangle unless noted otherwise. Along the x-axis, light/dark bars indicate lights on/off.
Adult, male Wistar rats (approximately 270 g at time of surgery, Charles River Laboratories) were administered dexmedetomidine 25 μg/kg and anesthetized (2% isoflourane in 95/5 oxygen, to effect) and surgically prepared with a cranial implant that permitted chronic electro-encephalogram (EEG) and electromyogram (EMG) recording. Body temperature and locomotor activity were monitored via a miniature transmitter (Minimitter Series PDT4000 E-Mitter, Bend, Oreg.) surgically placed in the abdomen during the same anesthetic event when the cranial portion was implanted. The cranial implant consisted of miniature stainless steel screws (2 frontal [+3.9 AP from bregma, 2.0 ML], 2 occipital [−6.4 AP, 5.5 ML], and 1 ground placed sagittaly and posterior to lambda) for EEG recording. Two Teflon-coated multi-strand stainless steel wires were positioned under the nuchal trapezoid muscles for EMG recording. All leads were soldered to a miniature connector (Omnetics, Minneapolis, Minn.) and gas sterilized with ethylene oxide prior to surgery. The implant assembly was affixed to the skull by the combination of the EEG recording screws, cyanoacrylate applied between the hermetically sealed implant connector and skull, and a UV-curing dental acrylic. An analgesic (meloxicam 1 mg/kg IP) was administered 1 day prior to surgery and daily for 2 days post-surgery. Neosporin with lidocaine was applied topically to the peri-implant margin. At least three weeks were allowed for surgical recovery prior to any data collection.
Rats were housed individually within specially modified Innovive® cages equipped with a custom-built ultra-low-torque slip-ring commutator and a customized Innovive® polycarbonate cage-top. These cages were located on shelves of a modified stainless steel animal rack that was pre-wired for physiological and behavioral data collection. Food and water were available ad libitum and the ambient temperature was 22±1° C. A 24-hr light-dark cycle (LD 12:12) was maintained throughout the study using LED lighting strips. Light intensity averaged 35 lux at mid-level inside the cage. Relative humidity averaged 50% approximately. Animals were undisturbed for two days before and after each treatment.
Sleep and wakefulness were determined using SCORE™—a Linux and Windows-10 real-time computer-based sleep-wake and physiological monitoring system. Validation of the SCORE™ sleep stage identification algorithm in rodents and the system's utility in pre-clinical drug discovery and evaluation have been previously described (Edgar et al. Psychopharmacology 1991, 105, 374; Gilmour et al., Neuropharmacology 2012, 64, 224; McCarthy et al., 2016, Neuropharmacology 108, 415; Olive et al., J. Pharmacology &Experimental Therapeutics 1998 285, 1073; Phillips et al, Neuropharmacology 2012, 62, 1359; Seidel et al. J Pharmacology &Experimental Therapeutics 1995, 275, 263; Van Gelder et al. Sleep 1991, 14, 48). […]

pKi: −log10 of the molar value.

Sequence of 5-HT2A (P28223 whole entry, species assumed): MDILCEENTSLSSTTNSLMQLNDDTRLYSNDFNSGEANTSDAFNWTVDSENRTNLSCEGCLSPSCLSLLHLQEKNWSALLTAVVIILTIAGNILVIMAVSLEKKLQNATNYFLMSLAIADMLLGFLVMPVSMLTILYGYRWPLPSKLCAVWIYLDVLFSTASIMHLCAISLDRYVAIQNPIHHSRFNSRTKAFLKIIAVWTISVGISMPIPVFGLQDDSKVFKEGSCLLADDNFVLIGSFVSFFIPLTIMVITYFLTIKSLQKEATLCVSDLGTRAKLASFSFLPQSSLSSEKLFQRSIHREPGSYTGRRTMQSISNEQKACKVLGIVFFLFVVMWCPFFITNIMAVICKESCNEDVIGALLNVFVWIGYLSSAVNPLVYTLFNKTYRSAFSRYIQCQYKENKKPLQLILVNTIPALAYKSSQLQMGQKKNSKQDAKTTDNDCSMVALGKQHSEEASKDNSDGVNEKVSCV
Sequence of 5-HT2C (P28335 33-458): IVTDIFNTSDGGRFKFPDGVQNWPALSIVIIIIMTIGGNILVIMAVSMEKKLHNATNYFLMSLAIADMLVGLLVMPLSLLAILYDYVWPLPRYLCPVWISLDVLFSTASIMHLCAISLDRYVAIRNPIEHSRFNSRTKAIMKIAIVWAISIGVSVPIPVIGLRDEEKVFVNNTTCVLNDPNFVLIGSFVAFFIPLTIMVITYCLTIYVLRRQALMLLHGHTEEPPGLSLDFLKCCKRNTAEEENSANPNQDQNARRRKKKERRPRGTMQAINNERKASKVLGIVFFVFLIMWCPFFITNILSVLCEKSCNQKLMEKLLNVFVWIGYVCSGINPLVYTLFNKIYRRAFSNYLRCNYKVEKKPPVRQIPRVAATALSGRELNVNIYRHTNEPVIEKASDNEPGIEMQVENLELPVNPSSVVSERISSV

As to `Cc1ccc2c(c1)Oc1cc(Cl)ccc1N=C2N1CCN(CC(C)(C)C(=O)O)CC1` [Compound No. 1, 3-(4-(7-chloro-3-methyldibenzo[b,f][1,4]oxazepin-11-yl)piperazin-1-yl)-2,2-dimethylpropanoic acid], the figures for the pKi in assay [1], in assay [2] and in assay [3] were less than 6.30, 7.60 to 9.00 and 7.60 to 9.00, respectively.

In assay [2], `Cc1ccc2c(c1)Oc1cc(C(F)F)ccc1C(N1CCN(CC(C)(C)C(=O)O)CC1)=N2` [Compound No. 15, 3-(4-(3-(difluoromethyl)-7-methyldibenzo[b,f][1,4]oxazepin-11-yl)piperazin-1-yl)-2,2-dimethylpropanoic acid] had a pKi of 7.60 to 9.00. For the same compound, the “reductions in the number of transitions from sleep to wake per hour relative to controls” value in assay [4] (CT-5, male Wistar rats) is “approximately 30%”. Also, in assay [4] (CT-18, male Wistar rats), the “increase in sleep bout-length per hour relative to vehicle control” value is “approximately 3 fold” and the “normalized EEG delta power (slow wave activity) during nonREM sleep” value is on record as “increases in EEG slow wave activity in nonREM sleep”. In assay [3], this compound had a pKi of less than 7.30.

Turning to `Cc1ccc2c(c1)Oc1cc(F)ccc1C(N1CCN(CC(C)(C)C(=O)O)CC1)=N2` [Compound No. 17, 3-(4-(3-fluoro-7-methyldibenzo[b,f][1,4]oxazepin-11-yl)piperazin-1-yl)-2,2-dimethylpropanoic acid], the negative-log Ki (pKi) in assay [2] and in assay [3] was 7.60 to 9.00 throughout.

In the case of `Cc1ccc2c(c1)Oc1cc(F)ccc1N=C2N1CCN(CC2(C(=O)O)CC2)CC1` [Compound No. 18, 1-((4-(7-fluoro-3-methyldibenzo[b,f][1,4]oxazepin-11-yl)piperazin-1-yl)methyl)cyclopropane-1-carboxylic acid], the negative logarithm of the Ki (pKi) was 7.30 to 7.60 in assay [2] and 7.60 to 9.00 in assay [3].

For `Cc1ccc2c(c1)Oc1cc(F)ccc1C(N1CCN(CC3(C(=O)O)CC3)CC1)=N2` [Compound No. 19, 1-((4-(3-fluoro-7-methyldibenzo[b,f][1,4]oxazepin-11-yl)piperazin-1-yl)methyl)cyclopropane-1-carboxylic acid], the results for the pKi in assay [2] and in assay [3] were 7.60 to 9.00 and 7.30 to 7.60, respectively.

Regarding `COc1ccc2c(c1)Oc1cc(Cl)ccc1N=C2N1CCN(CC(C)(C)C(=O)O)CC1` [Compound No. 20, 3-(4-(7-chloro-3-methoxydibenzo[b,f][1,4]oxazepin-11-yl)piperazin-1-yl)-2,2-dimethylpropanoic acid], the negative-log Ki (pKi) in assay [2] was 7.30 to 7.60; in assay [3] it was less than 7.30.

For the compound `COc1ccc2c(c1)Oc1cc(F)ccc1N=C2N1CCN(CC(C)(C)C(=O)O)CC1` [Compound No. 21, 3-(4-(7-fluoro-3-methoxydibenzo[b,f][1,4]oxazepin-11-yl)piperazin-1-yl)-2,2-dimethylpropanoic acid], the figures for the negative logarithm of the Ki (pKi) in assay [2] and in assay [3] were 7.30 to 7.60 and less than 7.30, respectively.

In the case of `CC(C)(CN1CCN(C2=Nc3ccccc3Cc3cc(F)ccc32)CC1)C(=O)O` [Compound No. 37, 3-(4-(9-fluoro-11H-dibenzo[b,e]azepin-6-yl)piperazin-1-yl)-2,2-dimethylpropanoic acid], the pKi in assay [1] is less than 6.30; in assay [2], less than 7.30; in assay [3], less than 7.30.

As to `Cc1ccc2c(c1)Cc1ccccc1C(N1CCN(CC(C)(C)C(=O)O)CC1)=N2` [Compound No. 38, 2,2-dimethyl-3-(4-(2-methyl-11H-dibenzo[b,e]azepin-6-yl)piperazin-1-yl)propanoic acid], the results for the pKi in assay [1], in assay [2] and in assay [3] were more than 7.00, less than 7.30 and less than 7.30, respectively.

With `CC(C)(CN1CCN(C2=Nc3ccccc3Oc3cccc(F)c32)CC1)C(=O)O` [Compound No. 39, 3-(4-(1-fluorodibenzo[b,f][1,4]oxazepin-11-yl)piperazin-1-yl)-2,2-dimethylpropanoic acid], the results for the pKi in assay [1], in assay [2] and in assay [3] were more than 7.00, less than 7.30 and less than 7.30, respectively.

In assay [1], `Cc1ccc2c(c1)Oc1ccc(F)cc1N=C2N1CCN(CC(C)(C)C(=O)O)CC1` [compound 28, 3-(4-(8-fluoro-3-methyldibenzo[b,f][1,4]oxazepin-11-yl)piperazin-1-yl)-2,2-dimethylpropanoic acid] gave a pKi of 6.30 to 7.00.

`Cc1ccc2c(c1)Oc1ccc(Cl)cc1N=C2N1CCN(CC(C)(C)C(=O)O)CC1` [compound 29, 3-(4-(8-chloro-3-methyldibenzo[b,f][1,4]oxazepin-11-yl)piperazin-1-yl)-2,2-dimethylpropanoic acid] had a pKi in assay [1] of more than 7.00.

Consider `CC(C)(CN1CCN(C2=Nc3cc(F)ccc3Oc3cc(F)ccc32)CC1)C(=O)O` [compound 31, 3-(4-(3,8-difluorodibenzo[b,f][1,4]oxazepin-11-yl)piperazin-1-yl)-2,2-dimethylpropanoic acid], for which the negative-log Ki (pKi) in assay [1] is more than 7.00.

Take `Cc1ccc2c(c1)N=C(N1CCN(CC(C)(C)C(=O)O)CC1)c1ccc(C(F)F)cc1O2` [compound 33, 3-(4-(3-(difluoromethyl)-8-methyldibenzo[b,f][1,4]oxazepin-11-yl)piperazin-1-yl)-2,2-dimethylpropanoic acid]: the negative-log Ki (pKi) in assay [1] was more than 7.00.

`Cc1ccc2c(c1)C(N1CCN(CC(C)(C)C(=O)O)CC1)=Nc1cc(Cl)ccc1O2` [compound 34, 3-(4-(8-chloro-2-methyldibenzo[b,f][1,4]oxazepin-11-yl)piperazin-1-yl)-2,2-dimethylpropanoic acid]: the pKi in assay [1] was more than 7.00.

`COc1ccc2c(c1)C(N1CCN(CC(C)(C)C(=O)O)CC1)=Nc1cc(Cl)ccc1O2` [compound 35, 3-(4-(8-chloro-2-methoxydibenzo[b,f][1,4]oxazepin-11-yl)piperazin-1-yl)-2,2-dimethylpropanoic acid]: in assay [1], the pKi was 6.30 to 7.00.

The pKi is −log10 of the Ki, conventionally taken in molar units. High values mean a low Ki, low ones a high Ki.
